Here are results for 25 compounds from patent US9403835B2, “Tetraaza-cyclopenta[a]indenyl and their use as positive allosteric modulators” (Merck Patent GmbH, priority 2011, dated 2016).

By EC50 is commonly meant the concentration that produces a half-maximal response. A low value points to a more potent agent.

This test deals with T1, muscarinic M1 receptor (Homo sapiens, UniProt P11229).
T1 construct: expressed in transfected cells; host or cells: CHO (M1-CHO cells)
T1 sequence (P11229 1-460): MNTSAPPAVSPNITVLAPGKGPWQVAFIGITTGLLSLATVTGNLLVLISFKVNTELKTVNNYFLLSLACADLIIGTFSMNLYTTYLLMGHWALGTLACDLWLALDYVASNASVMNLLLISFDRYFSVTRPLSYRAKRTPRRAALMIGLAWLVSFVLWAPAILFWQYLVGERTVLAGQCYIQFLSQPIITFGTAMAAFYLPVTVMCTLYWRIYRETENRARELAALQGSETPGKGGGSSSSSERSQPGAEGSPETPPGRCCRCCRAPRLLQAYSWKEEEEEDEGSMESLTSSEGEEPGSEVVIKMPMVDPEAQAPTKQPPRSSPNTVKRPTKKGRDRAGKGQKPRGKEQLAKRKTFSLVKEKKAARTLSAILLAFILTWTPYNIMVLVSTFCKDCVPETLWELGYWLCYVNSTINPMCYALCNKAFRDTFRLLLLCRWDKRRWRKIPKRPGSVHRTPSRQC
In words: M1 PAM Assay (IP-One HTRF, IP1 in M1-CHO cells with EC20 of acetylcholine). The test is classed as cell-based. As to conditions: 1 hour at room temperature, IP1 readout. The procedure:
M1-CHO cells are plated in culture medium (HAM's F12, P/S, 10% FCS) on the day before the experiment with 10 000 cells/well in a 384 well plate (3750 Corning White 384 w plate with lid). On the day of experiment, cells are washed with PBS and IPone buffer is added (glucose 5.5 mM, NaCl 146 mM, MgCl2 0.5 mM, HEPES 10 mM, LiCl 50 mM, CaCl2 1 mM, KCl 4.2 mM). Then diluted compounds (1% DMSO final concentration) are added together with EC20 of acetylcholine and incubated with the cells for 1 hour at room temperature. The intracellular concentration of IP1 is then measured using the IP-One HTRF assay from Cisbio.
On the technique in general: TR-FRET usually uses a lanthanide donor and a delayed reading to cut background.
`Cc1nc2c3c(nn2c(C)c1Cl)CN(C(=O)c1ccccc1OC1CCN(C)CC1)C3` [Example 1, (6-chloro-5,7-dimethyl-1H,3H-2,4,7a,8-tetraaza-cyclopenta[a]inden-2-yl)-[2-(1-methyl-piperidin-4-yloxy)-phenyl]-methanone]: the concentration for a half-maximal effect (EC50) is below 200 nM.

On to `Cc1nc2c3c(nn2c(C)c1Cl)CN(C(=O)c1ccccc1OC(F)(F)C(F)F)C3` [Example 2, (6-chloro-5,7-dimethyl-1H,3H-2,4,7a,8-tetraaza-cyclopenta[a]inden-2-yl)-[2-(1,1,2,2-tetrafluoro-ethoxy)-phenyl]-methanone], for which the half-maximal effective concentration (EC50) was below 200 nM.

On to `Cc1nc2c3c(nn2c(C)c1Cl)CN(C(=O)c1ccccc1OC1CCNCC1)C3` [Example 3, (6-chloro-5,7-dimethyl-1H,3H-2,4,7a,8-tetraaza-cyclopenta[a]inden-2-yl)-[2-(piperidin-4-yloxy)-phenyl]-methanone], for which the EC50 is below 200 nM.

`Cc1nc2c3c(nn2c(C)c1C)CN(C(=O)c1ccccc1OC1CCN(C)CC1)C3` [Example 4, [2-(1-methyl-piperidin-4-yloxy)-phenyl]-(5,6,7-trimethyl-1H,3H-2,4,7a,8-tetraaza-cyclopenta[a]inden-2-yl)-methanone] displayed a concentration giving a half-maximal response (EC50) of 200 to 1000 nM.

`CCOc1cc(F)ccc1C(=O)N1Cc2nn3c(C)c(Cl)c(C)nc3c2C1` [Example 5, (6-chloro-5,7-dimethyl-1H,3H-2,4,7a,8-tetraaza-cyclopenta[a]inden-2-yl)-(2-ethoxy-4-fluoro-phenyl)-methanone]: the EC50 was 200 to 1000 nM.

As for `Cc1nc2c3c(nn2c(C)c1Cl)CN(C(=O)c1ccccc1N1CCCN(C)CC1)C3` [Example 6, (6-chloro-5,7-dimethyl-1H,3H-2,4,7a,8-tetraaza-cyclopenta[a]inden-2-yl)-[2-(4-methyl-[1,4]diazepan-1-yl)-phenyl]-methanone], the concentration for a half-maximal effect (EC50) was in the range of 200 to 1000 nM.

`Cc1nc2c3c(nn2c(C)c1Cl)CN(C(=O)c1ccccc1N1CCCC1)C3` [Example 7, (6-chloro-5,7-dimethyl-1H,3H-2,4,7a,8-tetraaza-cyclopenta[a]inden-2-yl)-(2-pyrrolidin-1-yl-phenyl)-methanone] had an EC50 of 200 to 1000 nM.

In turn, `Cc1nc2c3c(nn2c(C)c1Cl)CN(C(=O)c1ccccc1OC(C)C)C3` [Example 9, (6-chloro-5,7-dimethyl-1H,3H-2,4,7a,8-tetraaza-cyclopenta[a]inden-2-yl)-(2-isopropoxy-phenyl)-methanone] displayed a half-maximal effective concentration (EC50) of 200 to 1000 nM.

The compound `CCOc1ccccc1C(=O)N1Cc2nn3c(C)c(C)c(C)nc3c2C1` [Example 12, (2-ethoxy-phenyl)-(5,6,7-trimethyl-1H,3H-2,4,7a,8-tetraaza-cyclopenta[a]inden-2-yl)-methanone] yielded an EC50 of 200 to 1000 nM.

`CCOc1ccc(F)cc1C(=O)N1Cc2nn3c(C)c(C)c(C)nc3c2C1` [Example 13, (2-ethoxy-5-fluoro-phenyl)-(5,6,7-trimethyl-1H,3H-2,4,7a,8-tetraaza-cyclopenta[a]inden-2-yl)-methanone] returned a half-maximal effective concentration (EC50) of 200 to 1000 nM.

As for `Cc1nc2c3c(nn2c(C)c1C)CN(C(=O)c1ccccc1OC(F)(F)F)C3` [Example 17, (2-trifluoromethoxy-phenyl)-(5,6,7-trimethyl-1H,3H-2,4,7a,8-tetraaza-cyclopenta[a]inden-2-yl)-methanone], the concentration for a half-maximal effect (EC50) was 200 to 1000 nM.

In the case of `Cc1nc2c3c(nn2c(C)c1Cl)CN(C(=O)c1ccc(F)cc1OCCn1cccn1)C3` [Example 18, (6-chloro-5,7-dimethyl-1H,3H-2,4,7a,8-tetraaza-cyclopenta[a]inden-2-yl)-[4-fluoro-2-(2-pyrazol-1-yl-ethoxy)-phenyl]-methanone], the EC50 lay within 200 to 1000 nM.

Regarding `Cc1nc2c3c(nn2c(C)c1C)CN(C(=O)c1ccccc1N1CCCN(C)CC1)C3` [Example 19, [2-(4-methyl-[1,4]diazepan-1-yl)-phenyl]-(5,6,7-trimethyl-1H,3H-2,4,7a,8-tetraaza-cyclopenta[a]inden-2-yl)-methanone], the EC50 was 200 to 1000 nM.

As for `Cc1nc2c3c(nn2c(C)c1C)CN(C(=O)c1ccccc1OCCN1CCCCC1)C3` [Example 20, [2-(2-piperidin-1-yl-ethoxy)-phenyl]-(5,6,7-trimethyl-1H,3H-2,4,7a,8-tetraaza-cyclopenta[a]inden-2-yl)-methanone], the concentration for a half-maximal effect (EC50) is 200 to 1000 nM.

As to `CCCCOc1ccccc1C(=O)N1Cc2nn3c(C)c(C)c(C)nc3c2C1` [Example 21, (2-butoxy-phenyl)-(5,6,7-trimethyl-1H,3H-2,4,7a,8-tetraaza-cyclopenta[a]inden-2-yl)-methanone], the EC50 is 200 to 1000 nM.

As to `CC(=O)Oc1ccccc1C(=O)N1Cc2nn3c(C)c(C)c(C)nc3c2C1` [Example 23, acetic acid 2-(5,6,7-trimethyl-1H,3H-2,4,7a,8-tetraaza-cyclopenta[a]indene-2-carbonyl)-phenyl ester], the half-maximal effective concentration (EC50) is 200 to 1000 nM.

The compound `Cc1nc2c3c(nn2c(C)c1C)CN(C(=O)c1ccccc1OCCn1cccn1)C3` [Example 24, [2-(2-pyrazol-1-yl-ethoxy)-phenyl]-(5,6,7-trimethyl-1H,3H-2,4,7a,8-tetraaza-cyclopenta[a]inden-2-yl)-methanone] had an EC50 of 200 to 1000 nM.

In turn, `CSc1ccccc1C(=O)N1Cc2nn3c(C)c(C)c(C)nc3c2C1` [Example 25, (2-methylsulfanyl-phenyl)-(5,6,7-trimethyl-1H,3H-2,4,7a,8-tetraaza-cyclopenta[a]inden-2-yl)-methanone] returned an EC50 of 200 to 1000 nM.

For the compound `Cc1nc2c3c(nn2c(C)c1C)CN(C(=O)c1ccccc1OC(C)C)C3` [Example 26, (2-isopropoxy-phenyl)-(5,6,7-trimethyl-1H,3H-2,4,7a,8-tetraaza-cyclopenta[a]inden-2-yl)-methanone], the EC50 is 200 to 1000 nM.

On to `CCOc1ccccc1C(=O)N1Cc2nn3c(C)c(CC)c(C)nc3c2C1` [Example 27, (2-ethoxy-phenyl)-(6-ethyl-5,7-dimethyl-1H,3H-2,4,7a,8-tetraaza-cyclopenta[a]inden-2-yl)-methanone], for which the half-maximal effective concentration (EC50) fell in the range of 1000 to 2000 nM.

The compound `Cc1nc2c3c(nn2c(C)c1C)CN(C(=O)c1ccccc1OCc1ccccc1)C3` [Example 29, (2-benzyloxy-phenyl)-(5,6,7-trimethyl-1H,3H-2,4,7a,8-tetraaza-cyclopenta[a]inden-2-yl)-methanone] registered an EC50 of 1000 to 2000 nM.

In the case of `CCOc1ccccc1C(=O)N1Cc2nn3cc(C)c(C)nc3c2C1` [Example 31, (5,6-Dimethyl-1H,3H-2,4,7a,8-tetraaza-cyclopenta[a]inden-2-yl)-(2-ethoxy-phenyl)-methanone], the half-maximal effective concentration (EC50) lay in the range of 1000 to 2000 nM.

Take `Cc1cn2nc3c(c2nc1C)CN(C(=O)c1ccccc1OCCN(C)C)C3` [Example 32, [2-(2-dimethylamino-ethoxy)-phenyl]-(5,6-dimethyl-1H,3H-2,4,7a,8-tetraaza-cyclopenta[a]inden-2-yl)-methanone]: the EC50 was in the range of 1000 to 2000 nM.

Take `Cc1cn2nc3c(c2nc1C)CN(C(=O)c1ccccc1N1CCCN(C)CC1)C3` [Example 33, (5,6-dimethyl-1H,3H-2,4,7a,8-tetraaza-cyclopenta[a]inden-2-yl)-[2-(4-methyl-[1,4]diazepan-1-yl)-phenyl]-methanone]: the EC50 was 1000 to 2000 nM.

Turning to `CCOc1ccc(Cl)cc1C(=O)N1Cc2nn3c(C)c(C)c(C)nc3c2C1` [Example 34, (5-chloro-2-ethoxy-phenyl)-(5,6,7-trimethyl-1H,3H-2,4,7a,8-tetraaza-cyclopenta[a]inden-2-yl)-methanone], the EC50 fell in the range of 1000 to 2000 nM.
